Data from ChEMBL document CHEMBL4038272, “Synthesis and biological evaluation of novel podophyllotoxin-NSAIDs conjugates as multifunctional anti-MDR agents against resistant human hepatocellular carcinoma Bel-7402/5-FU cells” (Eur J Med Chem, 2017).
pIC50: −log10 of the molar value. Active and inactive are the calls of the source. No cut-off for these calls is given here.

Experiments:
Bel7402/5-FU [1] = test: Induction of apoptosis in human Bel7402/5-FU cells assessed as late apoptotic cells at 2 uM after 48 hrs by Annexin V-APC/7-AAD staining based flow cytometry (reference value: 3%); format: functional
[2] = biological target: RAC-alpha serine/threonine-protein kinase (Homo sapiens) (UniProt P31749); test: Effect on AKT phosphorylation in human Bel7402/5-FU cells assessed as ratio of phosphorylated AKT to beta-actin level at 2 uM after 48 hrs by Western blot analysis (reference value: 0.39); format: cell-based
Chain of RAC-alpha serine/threonine-protein kinase (Homo sapiens) (P31749 whole entry): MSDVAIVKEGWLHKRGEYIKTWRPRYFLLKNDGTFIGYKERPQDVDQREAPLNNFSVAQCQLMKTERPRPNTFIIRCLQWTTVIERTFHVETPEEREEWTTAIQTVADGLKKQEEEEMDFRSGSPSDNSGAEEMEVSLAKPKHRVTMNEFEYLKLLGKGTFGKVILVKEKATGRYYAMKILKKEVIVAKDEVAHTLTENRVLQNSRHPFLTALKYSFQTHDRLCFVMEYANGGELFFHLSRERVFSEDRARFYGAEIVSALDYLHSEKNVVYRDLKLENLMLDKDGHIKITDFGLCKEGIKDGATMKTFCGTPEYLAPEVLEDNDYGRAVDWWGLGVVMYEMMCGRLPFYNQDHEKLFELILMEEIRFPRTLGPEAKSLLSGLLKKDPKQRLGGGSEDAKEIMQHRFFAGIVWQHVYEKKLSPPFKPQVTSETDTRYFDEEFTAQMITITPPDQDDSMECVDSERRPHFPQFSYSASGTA

[3] = biological target: Signal transducer and activator of transcription 3 (Homo sapiens) (UniProt P40763); test: Effect on STAT3 phosphorylation in human Bel7402/5-FU cells assessed as ratio of phosphorylated STAT3 to beta-actin level at 2 uM after 48 hrs by Western blot analysis (reference value: 0.3); format: cell-based
Chain of Signal transducer and activator of transcription 3 (Homo sapiens) (P40763 whole entry): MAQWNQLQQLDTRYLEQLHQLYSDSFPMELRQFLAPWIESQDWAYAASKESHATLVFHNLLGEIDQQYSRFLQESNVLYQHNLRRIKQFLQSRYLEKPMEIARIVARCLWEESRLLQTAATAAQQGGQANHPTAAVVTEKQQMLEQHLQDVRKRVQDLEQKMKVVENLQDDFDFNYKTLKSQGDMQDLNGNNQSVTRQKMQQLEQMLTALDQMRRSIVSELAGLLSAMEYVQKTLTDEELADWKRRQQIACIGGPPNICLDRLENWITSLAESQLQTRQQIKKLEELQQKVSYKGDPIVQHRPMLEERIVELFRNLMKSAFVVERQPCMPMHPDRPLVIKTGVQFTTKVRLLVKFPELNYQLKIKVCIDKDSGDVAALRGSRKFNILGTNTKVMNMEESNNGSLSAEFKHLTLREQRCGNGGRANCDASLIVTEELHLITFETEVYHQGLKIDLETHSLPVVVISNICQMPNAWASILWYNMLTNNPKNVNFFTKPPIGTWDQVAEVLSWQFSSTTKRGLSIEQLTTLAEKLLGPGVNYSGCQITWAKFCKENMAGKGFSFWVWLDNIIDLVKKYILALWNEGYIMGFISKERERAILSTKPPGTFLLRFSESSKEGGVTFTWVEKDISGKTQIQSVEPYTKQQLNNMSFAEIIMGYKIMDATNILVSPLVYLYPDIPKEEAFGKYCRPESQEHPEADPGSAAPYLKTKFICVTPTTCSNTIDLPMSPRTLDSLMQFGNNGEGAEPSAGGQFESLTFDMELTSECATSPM

Bel7402/5-FU [4] = test: Effect on VEGFR2 expression in human Bel7402/5-FU cells assessed as ratio of VEGFR2 to beta-actin level at 2 uM after 48 hrs by Western blot analysis (reference value: 0.25); format: functional
Bel7402/5-FU [5] = test: Induction of apoptosis in human Bel7402/5-FU cells assessed as ratio of cleaved caspase-8 to beta-actin level at 2 uM after 48 hrs by Western blot analysis (reference value: 0.17); format: functional
Bel7402/5-FU [6] = test: Effect on MMP2 expression in human Bel7402/5-FU cells assessed as ratio of MMP2 to beta-actin level at 2 uM after 48 hrs by Western blot analysis (reference value: 0.3); format: functional
Bel7402/5-FU [7] = test: Cell cycle arrest in human Bel7402/5-FU cells assessed as accumulation at G2 phase at 2 uM after 48 hrs by propidium iodide staining based flow cytometry (reference value: 35.16%); format: functional
Bel7402/5-FU [8] = test: Effect on E-cadherin expression in human Bel7402/5-FU cells assessed as ratio of E-cadherin to beta-actin level at 2 uM after 48 hrs by Western blot analysis (reference value: 0.2); format: functional
Bel7402/5-FU [9] = test: Effect on CDK2 expression in human Bel7402/5-FU cells assessed as ratio of CDK2 to beta-actin level at 2 uM after 48 hrs by Western blot analysis (reference value: 0.43); format: functional
Bel7402/5-FU [10] = test: Induction of apoptosis in human Bel7402/5-FU cells assessed as condensed nuclei at 2 uM after 24 hrs by Hoechst 33342 staining based fluorescent microscopic method; format: functional, cell-based
Bel7402/5-FU [11] = test: Effect on P-gp expression in human Bel7402/5-FU cells assessed as ratio of P-gp to beta-actin level at 2 uM after 48 hrs by Western blot analysis (reference value: 0.59); format: functional
Bel7402/5-FU [12] = test: Effect on COX2 expression in human Bel7402/5-FU cells assessed as ratio of COX2 to beta-actin level at 2 uM after 48 hrs by Western blot analysis (reference value: 0.36); format: functional
Bel7402/5-FU [13] = test: Induction of apoptosis in human Bel7402/5-FU cells assessed as early apoptotic cells at 2 uM after 48 hrs by Annexin V-APC/7-AAD staining based flow cytometry (reference value: 5.24%); format: functional
Bel7402/5-FU [14] = test: Effect on cyclinB1 expression in human Bel7402/5-FU cells assessed as ratio of cyclinB1 to beta-actin level at 2 uM after 48 hrs by Western blot analysis (reference value: 0.53); format: functional
Bel7402/5-FU [15] = test: Induction of microtubule disruption in human Bel7402/5-FU cells at 2 uM after 24 to 48 hrs by DAPI staining based immunofluorescence microscopic method; format: functional, cell-based
L02 = test: Antiproliferative activity against human LO2 cells after 72 hrs by CCK-8 assay; format: cell-based; conditions: L02, 72 h
Bel7402/5-FU [16] = test: Antiproliferative activity against human Bel7402/5-FU cells after 72 hrs by CCK-8 assay; format: functional, cell-based
[17] = biological target: Mitogen-activated protein kinase; ERK1/ERK2 (Homo sapiens) (UniProt P27361+P28482); test: Effect on ERK1/2 phosphorylation in human Bel7402/5-FU cells assessed as ratio of phosphorylated ERK1/2 to beta-actin level at 2 uM after 48 hrs by Western blot analysis (reference value: 0.59); format: cell-based
Chain of Mitogen-activated protein kinase; ERK1/ERK2 (Homo sapiens) (P27361 whole entry, looked up): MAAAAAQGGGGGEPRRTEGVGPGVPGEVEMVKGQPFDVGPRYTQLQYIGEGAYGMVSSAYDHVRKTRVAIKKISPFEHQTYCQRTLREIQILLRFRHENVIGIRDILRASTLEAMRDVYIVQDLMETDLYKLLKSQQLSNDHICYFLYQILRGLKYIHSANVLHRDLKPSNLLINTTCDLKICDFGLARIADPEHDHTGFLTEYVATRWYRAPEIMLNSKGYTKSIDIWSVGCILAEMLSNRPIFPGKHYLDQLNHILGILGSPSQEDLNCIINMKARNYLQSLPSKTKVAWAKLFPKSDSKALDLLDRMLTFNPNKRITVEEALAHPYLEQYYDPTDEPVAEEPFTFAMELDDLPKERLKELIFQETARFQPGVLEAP
Chain of Mitogen-activated protein kinase; ERK1/ERK2 (Homo sapiens) (P28482 whole entry, looked up): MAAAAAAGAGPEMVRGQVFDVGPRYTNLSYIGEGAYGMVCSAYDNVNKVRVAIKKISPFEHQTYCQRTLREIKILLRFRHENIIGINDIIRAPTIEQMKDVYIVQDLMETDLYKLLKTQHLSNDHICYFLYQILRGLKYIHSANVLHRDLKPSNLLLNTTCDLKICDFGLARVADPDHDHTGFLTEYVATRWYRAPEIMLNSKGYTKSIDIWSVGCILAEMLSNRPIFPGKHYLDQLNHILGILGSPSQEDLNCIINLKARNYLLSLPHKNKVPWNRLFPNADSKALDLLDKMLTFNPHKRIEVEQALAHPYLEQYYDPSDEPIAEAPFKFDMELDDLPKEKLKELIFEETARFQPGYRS

[18] = Resistant factor, ratio of IC50 for human Bel7402/5-FU cells to IC50 for human Bel7402 cells; format: functional
Bel7402/5-FU [19] = test: Cell cycle arrest in human Bel7402/5-FU cells assessed as accumulation at S phase at 2 uM after 48 hrs by propidium iodide staining based flow cytometry (reference value: 12.62%); format: functional
Bel7402/5-FU [20] = test: Induction of apoptosis in human Bel7402/5-FU cells at 2 uM after 24 hrs by Hoechst 33342 staining based fluorescent microscopic method; format: functional, cell-based
Bel7402/5-FU [21] = test: Induction of apoptosis in human Bel7402/5-FU cells assessed as live cells at 2 uM after 48 hrs by Annexin V-APC/7-AAD staining based flow cytometry (reference value: 91.08%); format: functional
Bel7402/5-FU [22] = test: Effect on MRP1 expression in human Bel7402/5-FU cells assessed as ratio of MRP1 to beta-actin level at 2 uM after 48 hrs by Western blot analysis (reference value: 0.58); format: functional
Bel7402/5-FU [23] = test: Antimigratory activity in human Bel7402/5-FU cells at 2 uM after 24 hrs by wound healing assay; format: functional, cell-based
Bel7402/5-FU [24] = test: Induction of apoptosis in human Bel7402/5-FU cells assessed as ratio of cleaved caspase-9 to beta-actin level at 2 uM after 48 hrs by Western blot analysis (reference value: 0.17); format: functional
Bel7402/5-FU [25] = test: Induction of apoptosis in human Bel7402/5-FU cells assessed as ratio of cleaved PARP to beta-actin level at 2 uM after 48 hrs by Western blot analysis (reference value: 0.2); format: functional
Bel7402/5-FU [26] = test: Effect on COX1 expression in human Bel7402/5-FU cells assessed as ratio of COX1 to beta-actin level at 2 uM after 48 hrs by Western blot analysis (reference value: 0.48); format: functional
Bel7402/5-FU [27] = test: Cell cycle arrest in human Bel7402/5-FU cells assessed as accumulation at G1 phase at 2 uM after 48 hrs by propidium iodide staining based flow cytometry (reference value: 52.21%); format: functional
Bel7402/5-FU [28] = test: Induction of apoptosis in human Bel7402/5-FU cells assessed as necrotic cells at 2 uM after 48 hrs by Annexin V-APC/7-AAD staining based flow cytometry (reference value: 0.58%); format: functional
Bel7402/5-FU [29] = test: Reduction in microtubule density in human Bel7402/5-FU cells at 2 uM after 24 to 48 hrs by DAPI staining based immunofluorescence microscopic method; format: functional, cell-based
Bel7402/5-FU [30] = test: Induction of apoptosis in human Bel7402/5-FU cells assessed as reduction in cell number at 2 uM after 24 hrs by Hoechst 33342 staining based fluorescent microscopic method; format: functional
Bel7402/5-FU [31] = test: Induction of apoptosis in human Bel7402/5-FU cells assessed as morphological changes at 2 uM after 24 hrs by Hoechst 33342 staining based fluorescent microscopic method; format: functional, cell-based
Bel7402/5-FU [32] = test: Induction of apoptosis in human Bel7402/5-FU cells assessed as ratio of cleaved caspase-3 to beta-actin level at 2 uM after 48 hrs by Western blot analysis (reference value: 0.19); format: functional
Bel7402/5-FU [33] = test: Effect on cyclinA expression in human Bel7402/5-FU cells assessed as ratio of cyclinA to beta-actin level at 2 uM after 48 hrs by Western blot analysis (reference value: 0.39); format: functional
Bel7402/5-FU [34] = test: Effect on iNOS expression in human Bel7402/5-FU cells assessed as ratio of iNOS to beta-actin level at 2 uM after 48 hrs by Western blot analysis (reference value: 0.13); format: functional
Bel7402/5-FU [35] = test: Effect on CDK1 expression in human Bel7402/5-FU cells assessed as ratio of CDK1 to beta-actin level at 2 uM after 48 hrs by Western blot analysis (reference value: 0.33); format: functional
Bel-7402 = test: Antiproliferative activity against human Bel7402 cells after 72 hrs by CCK-8 assay; format: functional, cell-based; conditions: Bel-7402, 72 h

COc1ccc2c(c1)c(CC(=O)O[C@H]1c3cc4c(cc3[C@@H](c3cc(OC)c(OC)c(OC)c3)[C@H]3C(=O)OC[C@@H]31)OCO4)c(C)n2C(=O)c1ccc(Cl)cc1
Activity (Bel7402/5-FU [1]): 20.65%
Ratio [2]: 0.4
Ratio [3]: 0.37
Ratio (Bel7402/5-FU [4]): 0.17
Ratio (Bel7402/5-FU [5]): 0.33
Ratio (Bel7402/5-FU [6]): 0.28
Activity (Bel7402/5-FU [7]): 51.09%
Ratio (Bel7402/5-FU [8]): 0.2
Ratio (Bel7402/5-FU [9]): 0.37
Activity (Bel7402/5-FU [10]): Active
Ratio (Bel7402/5-FU [11]): 0.63
Ratio (Bel7402/5-FU [12]): 0.36
Activity (Bel7402/5-FU [13]): 5.19%
Ratio (Bel7402/5-FU [14]): 0.51
Activity (Bel7402/5-FU [15]): Active
pIC50 (L02): 5.73
pIC50 (Bel7402/5-FU [16]): 5.67
Ratio [17]: 0.54
Ratio IC50 [18]: 0.36
Activity (Bel7402/5-FU [19]): 21.81%
Activity (Bel7402/5-FU [20]): Active
Activity (Bel7402/5-FU [21]): 66.98%
Ratio (Bel7402/5-FU [22]): 0.39
Activity (Bel7402/5-FU [23]): Active
Ratio (Bel7402/5-FU [24]): 0.33
Ratio (Bel7402/5-FU [25]): 0.35
Ratio (Bel7402/5-FU [26]): 0.42
Activity (Bel7402/5-FU [27]): 27.1%
Activity (Bel7402/5-FU [28]): 7.18%
Activity (Bel7402/5-FU [29]): Active
Activity (Bel7402/5-FU [30]): Active
Activity (Bel7402/5-FU [31]): Active
Ratio (Bel7402/5-FU [32]): 0.45
Ratio (Bel7402/5-FU [33]): 0.26
Ratio (Bel7402/5-FU [34]): 0.12
Ratio (Bel7402/5-FU [35]): 0.3
pIC50 (Bel-7402): 5.23
